Results: US12472185B2, “Methods for killing antibiotic tolerant bacteria” (THE PENN STATE RESEARCH FOUNDATION, priority 2020, dated 2025)

Tests used:
[1] = system: S. aureus ATCC29213; settings: from Chowdhury, Wood, et al., 2016; cited from earlier work
[2] = system: P. aeruginosa PA14; settings: from Chowdhury, Wood, et al., 2016; cited from earlier work
[3] = system: P. aeruginosa PA14 exponentially-growing cells; experiment: Killing at one MIC in PBS, NPIMA compared with cisplatin; assay type: cell-based, Pseudomonas aeruginosa
Description: FIG. 7. NPIMA compared width cisplatin for killing Pseudomonas aeruginosa, Escherichia coli, and Staphylococcus aureus. Survival of exponentially-growing cells of P. aeruginosa PA14 (a), E. coli (b), and S. aureus (c) treated with one MIC of NPIMA (♦) and cisplatin (●) for 3 hr in PBS. DMSO (▴) and NaClO4 (*) were used as a negative controls. MIC, minimum inhibitory concentration; NPIMA, 5-nitro-3-phenyl-1H-indol-2-yl-methylamine hydrochloride.
For bacterial viability, cells were washed twice with 0.85% NaCl, resuspended in 1×PBS, and cell counts were determined via the drop assay (Donegan, Matyac, Seidler, & Porteous, 1991). For human cell viability, pre-cultured human cancer HT-29 cells were dispensed in 98 μl in 96-well plates with approximately 5,000 cells/well. NPIMA was added (2 μl) to produce concentrations of 5, 10, 100, and 200 μM. For controls, Triton X-100 (positive control) and DMSO (negative solvent control), were used, and the medium was used for background. Plates were incubated in a humidified incubator (37° C., 5% CO2) for 24 hr. Cell viability was determined via a cell counting kit (CCK-8 Kit, ab228554; Abcam), and cytotoxicity was determined via the lactate dehydrogenase (LDH) assay (LDH Assay Kit, MK401; Takara).

[4] = system: E. coli K-12 BW25113; settings: from Chowdhury, Wood, et al., 2016; cited from earlier work

N.N.[Cl][Pt][Cl] [cisplatin]
MIC [1]: 1000 µM | MIC [2]: 150 µM | time to eradicate P. aeruginosa cells [3]: 1 h | MIC [4]: 300 µM
